Test results as given in patent publication US11390625B2, “Aryl-phosphorus-oxygen compound as EGFR kinase inhibitor” (Chia Tai Tianqing Pharmaceutical Group Co., Ltd., priority 2017, dated 2022).

How the values were obtained:
[1] = tested on: pEGFR Ba/F3 (EGFR Δ19del/T790M/C797S) cells; assay: Cell phosphorylation inhibition experiment, pEGFR Ba/F3 (EGFR Δ19del/T790M/C797S); assay type: cell-based; conditions: Ba/F3 EGFR; Ba/F3 cells, EGF stimulated; read-out: Effect on cellular EGFR phosphorylation Ba/F3(Δ19del/T790M/C797S) IC50
Protocol: The test compounds and reference compounds were diluted with 100% DMSO to 10 mM or 1 mM, and then a gradient dilution was performed by using Echo, 150 nL per well, with a three-fold concentration gradient and a ten-point dose response curve. The final concentration of the compounds was 100 μM or 10 μM. The suspension cells was centrifuged at 1000 rp for 5 minutes, suspend in Hanks' balanced salt solution, and added to a 384-well plate containing the compounds at 10 L/120K/well (the cell density of 1.2×10^7), followed by centrifugation at 1200 rpm for 30 s and incubation at 37° C. for 30 min. 5 μL of EGF (which has been diluted with 0.1% BSA Hanks' balanced salt solution) was added to each well, in which the final concentration of EGF was 1 μM. The plate was centrifuged at 1200 rpm for 30 s and incubated at 37° C. for 20 min. 5 μL of 4× lysis buffer containing blocking solution was added to each well, and then the plate was centrifuged at 1200 rpm for 30 s, and incubated at 37° C. for 30 min.

[2] = tested on: A431 cells (EGFR WT); assay: Cell antiproliferation experiment (1), A431 cells, CellTiter Glo; assay type: cell-based; conditions: Homo sapiens, A-431, 72 h, read-out: anti-proliferation effect on cells A431 EGFR WT IC50
Protocol: 1) Cell Culture and Passage
(1) A431 medium: 88% DMEM+10% fetal bovine serum+1% L-glutamine+1% double-antibody
(2) A431 cells were isolated and passaged every 3-4 days, wherein the number of the cells for 3-day passage was 5e6 cells per T75 culture flask, and the number of the cells for 4-day passage was 3e6 cells per T75 culture flask.
2) Day 1: Preparation of Cell Plate
(1) Phosphate buffer, trypsin, and a culture medium were placed in a water bath at 37° C. to preheat.
(2) The original medium was removed from the cell culture flask and washed once with 6 mL of PBS.
(3) 5 mL of phosphate buffer was pipetted into the culture flask to rinse the cells (passage 17), and then the liquid was discarded.
(4) The cell culture flask was added with 3.5 mL of trypsin, and shaken gently, trypsin was removed after fully contact with the cells, and then the culture flask was placed in an incubator containing 5% CO2 at 37° C. for about 1 minute;
(5) The cells were resuspended in 10 mL cell culture medium, and about 0.6 mL of cell suspension was take out for counting (ViCell XR);
(6) The cell suspension was diluted with the medium to the cell density of 5e4 cells per ml, which was required for plating (cell concentration: 2500 cells per well);
(7) 100 μL of phosphate buffer solution was added to each well around the cell plate, while 50 μL of the cell suspension was added to other wells, and the plate was incubated overnight in a incubator containing 5% CO2 at 37° C.
(1) 9 μL of the compound (concentration: 1 mM) was added into a shallow well plate for Echo.
(2) The shallow well plate was centrifuged at 1000 rpm for 10 s and the cell plate was removed from the incubator.
(3) According to the layout of the microplate, the compounds was diluted with a three-fold concentration gradient using Echo, each compound was diluted to 10 concentration gradients and 250 nL of the diluted compounds was respectively added to the cell plate, and then the cell plate was returned to the incubator and further incubated for 3 days.
4) Day 5: Adding CTG and Reading the Plate
(1) After incubation for 72 h, 25 μL of CellTiter Glo was added to each well of the cell plate, followed by shaking the plate for 10 min in the dark.
(2) The plate was read on Envision.
Data analysis: By computer fitting, the corresponding concentration of the compound at 50% inhibition rate was read as the IC50 of the compound for inhibiting cell activity.

[3] = tested on: Ba/F3 (EGFR Δ19del/T790M/C797S) cells; assay: Anti-proliferation experiment on cells (2), Ba/F3 (EGFR Δ19del/T790M/C797S); assay type: cell-based; conditions: Ba/F3 EGFR, 72 h; Ba/F3 cells, 3 days; read-out: anti-proliferation effect on cells Ba/F3(Δ19del/T790M/C797S) IC50
Protocol: The compounds ware transferred to a 384-well plate, with 125 nL of compound per well. […] After 3 days, 25 μL of detection reagent was added. The plate was incubated at room temperature for 10 minutes and then read with Envision.

[4] = biological target: EGFR (Δ19del/T790M/C797S) (Homo sapiens, UniProt P00533, C797S/T790M, form not given); assay: Enzyme activity experiment (1): EGFR (Δ19del/T790M/C797S) enzyme inhibition; assay type: biochemical; conditions: read-out: EGFR (Δ19del/T790M/C797S) IC50
Protocol: 1) 10 μL of the compounds to be tested and reference compounds diluted to 10 mM were taken into an Echo LDV plate, which were diluted according to the compound profile with Echo.
1) 1×enzyme reaction buffer was prepared: 1× enzyme buffer, 5 mM MgCl2, 1 mM DTT (dithiothreitol), water.
2) A mixed solution of 10 nM enzyme (final concentration of 5 nM) and 2 μM substrate (final concentration of 1 μM) and a solution containing the substrate alone were prepared with the diluted enzyme reaction buffer.
3) 5 μL of the substrate was added into A1-H1, J24-P24 (the number of the well position), and 5 μL of the mixture of the enzyme and substrate was added into the remaining wells.
4) Centrifugation was performed at 1000 rpm at 23° C. for 30 s.
5) Incubation was performed at 23° C. for 15 min.
7) Centrifugation was performed at 1000 rpm at 23° C. for 30 s.
8) Incubation was performed at 23° C. for 60 min.
9) 10 μL of 250 nM TK Antibody-Crypate (a final concentration of 125 nM) and 1×D2 (a final concentration ½ time) prepared with Detection buffer were added.
10) Centrifugation was performed at 1000 rpm at 23° C. for 30 s.
11) Incubation was performed at 23° C. for 60 min.
12) The data was read with Envision, and the ratio was calculated to obtain the IC50 of the compound for inhibiting the enzyme activity.

[5] = tested on: L858R/T790M/C797S mutations model; conditions: combined with EGFR monoclonal antibody such as cetuximab; Nature 534, 129-132, 2016; cited from earlier work
[6] = Plasma, tumor and lung exposure in mice of the Ba/F3 CDX efficacy experiment; assay type: in vivo; conditions: mouse, 15.0 mg/kg/day oral
Protocol: On Day 14 after administration to the groups for the efficacy experiment, the plasma was collected from the mice by submandibular blood collection before last administration and 2 hours after last administration, and the plasma samples were collected from the mice at 1 h, 4 h, 8 h and 24 h after administration. About 100 ul of blood was collected each time, placed in an anticoagulation tube, and centrifuged at 8000 rpm for 7 min, to collect plasma, which was stored at −80° C.

[7] = tested on: PC9 (EGFR-C797S/T790M/del19); conditions: combination with panitumumab or cetuximab; Nature Communications 8:14768, 2017; cited from earlier work

EGFR (Δ19del/T790M/C797S), sequence (P00533 25-1210 T790M/C797S limits assumed, form open): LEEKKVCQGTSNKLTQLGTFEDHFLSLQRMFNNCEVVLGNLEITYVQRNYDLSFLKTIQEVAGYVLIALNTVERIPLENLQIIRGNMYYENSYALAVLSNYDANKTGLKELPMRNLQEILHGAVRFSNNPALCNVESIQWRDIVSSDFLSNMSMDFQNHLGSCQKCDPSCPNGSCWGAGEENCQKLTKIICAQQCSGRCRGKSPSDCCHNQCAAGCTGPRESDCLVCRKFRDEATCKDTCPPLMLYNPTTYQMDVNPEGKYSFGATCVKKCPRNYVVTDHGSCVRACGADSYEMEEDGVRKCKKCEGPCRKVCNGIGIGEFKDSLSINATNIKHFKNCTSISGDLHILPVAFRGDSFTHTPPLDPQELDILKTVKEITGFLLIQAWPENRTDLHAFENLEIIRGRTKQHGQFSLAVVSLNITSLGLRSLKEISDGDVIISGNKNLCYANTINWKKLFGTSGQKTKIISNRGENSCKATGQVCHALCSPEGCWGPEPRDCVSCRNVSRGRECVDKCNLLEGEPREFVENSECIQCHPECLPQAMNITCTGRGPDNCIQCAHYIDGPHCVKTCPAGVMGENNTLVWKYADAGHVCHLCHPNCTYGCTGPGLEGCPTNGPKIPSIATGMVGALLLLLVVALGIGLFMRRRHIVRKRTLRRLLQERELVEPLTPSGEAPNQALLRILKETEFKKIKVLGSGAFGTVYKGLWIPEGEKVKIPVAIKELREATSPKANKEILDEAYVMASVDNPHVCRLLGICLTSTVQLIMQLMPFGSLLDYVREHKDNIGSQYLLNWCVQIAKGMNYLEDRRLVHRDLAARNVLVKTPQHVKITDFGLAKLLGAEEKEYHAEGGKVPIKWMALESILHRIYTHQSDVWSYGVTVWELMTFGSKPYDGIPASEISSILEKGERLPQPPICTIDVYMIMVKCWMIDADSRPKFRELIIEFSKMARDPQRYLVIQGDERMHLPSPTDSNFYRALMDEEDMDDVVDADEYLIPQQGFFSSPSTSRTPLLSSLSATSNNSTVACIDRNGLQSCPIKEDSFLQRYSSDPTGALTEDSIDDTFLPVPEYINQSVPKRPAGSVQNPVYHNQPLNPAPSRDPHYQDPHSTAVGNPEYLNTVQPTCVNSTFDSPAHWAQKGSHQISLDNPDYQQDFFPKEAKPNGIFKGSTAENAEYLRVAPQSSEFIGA

Row | SMILES | IC50 [1] [nM] | IC50 [2] [nM] | IC50 [3] [nM] | IC50 [4] [nM] | also measured
1 | COc1cc(N2CCC3(CC2)CN(C)C3)ccc1Nc1ncc(Cl)c(Nc2ccc3ccccc3c2P(C)(C)=O)n1 [Compound 5] | 96 | 890 | 313 | 1.63 | –
2 | COc1cc(N2CCC(N3CCN(C)CC3)CC2)ccc1Nc1ncc(Cl)c(Nc2ccc3ccccc3c2P(C)(C)=O)n1 [Compound 6] | 187 | 997 | 361 | 2.54 | –
3 | O=C(Nc1nccs1)C(c1cc(F)ccc1O)N1Cc2ccccc2C1=O (stereo not drawn) [EAI045] | – | – | – | – | tumor inhibition effect [5]: better tumor inhibition effect
4 | COc1cc(N2CCC(N3CCN(C)CC3)CC2)ccc1Nc1ncc(Cl)c(Nc2ccccc2P(C)(C)=O)n1 [Brigatinib, reference compound] | – | – | – | – | AUC(0-t) ([6]; BALB/c nude, plasma): 32.8 µM·h; half-life ([6]; BALB/c nude, plasma): 5.57 h; concentration at 2 h ([6]; BALB/c nude, plasma, 2 h after administration): 5.18 µM; Lung, 2 h ([6]; 2 h after administration): 10217 nmol/kg; Tumor, 2 h ([6]; 2 h after administration): 5807 nmol/kg; antitumor efficacy [7]: good antitumor efficacy
5 | COc1cc(N2CCC3(CCN(C)CC3)CC2)c(Cl)cc1Nc1ncc(Cl)c(Nc2ccc3ccccc3c2P(C)(C)=O)n1 [Compound 4] | 278 | 3750 | 556 | – | –
6 | COc1cc(N2CCC(N3CCN(C)CC3)CC2)ccc1Nc1ncc(Cl)c(Nc2ccc3sccc3c2P(C)(C)=O)n1 [Compound 3] | 187 | 3240 | 638 | – | –
7 | COc1cc(N2CCC3(CC2)CN(C)C3)c(C)cc1Nc1ncc(Cl)c(Nc2ccc3sccc3c2P(C)(C)=O)n1 [Compound 2] | 68 | 811 | 178 | 0.613 | –

More lines, main results first:

Row | IC50 [1] [nM] | IC50 [2] [nM] | IC50 [3] [nM] | IC50 [4] [nM] | SMILES | also measured
8 | 1720 | > 10000 | 3620 | 5.79 | COc1cc(N2CCC3(CC2)CN(C)C3)c(C)cc1Nc1ncc(Cl)c(Nc2ccc3cnn(C)c3c2P(C)(C)=O)n1 [Compound 13] | –
9 | 149 | 282 | 149 | 0.485 | COc1cc(N2CCC3(CC2)CN(C)C3)c(C)cc1Nc1ncc(Cl)c(Nc2ccc3ccccc3c2P(C)(C)=O)n1 [Compound 9] | –
10 | 94 | 357 | 56 | – | COc1cc(N2CCC3(CC2)CN(CCN(C)C)C3)c(C)cc1Nc1cc(Nc2ccc3nccnc3c2P(C)(C)=O)c(Br)cn1 [Compound 37] | –
11 | 534 | 534 | 54.3 | – | COc1cc(N2CCC(N3CCN(C)CC3)CC2)ccc1Nc1ncc(Cl)c(Nc2ccc3nccnc3c2P(C)(C)=O)n1 [Example 59] | –
12 | 24 | 561 | 31 | – | CCc1cc(Nc2ncc(Br)c(Nc3ccc4nccnc4c3P(C)(C)=O)n2)c(OC)cc1N1CCC2(CC1)CN(C)C2 [Compound 40] | –
13 | 203 | 1260 | 239 | – | COc1cc(N2CCC3(CC2)CN(C)C3)c(C)cc1Nc1ncc(Cl)c(Nc2ccc3cccnc3c2P(C)(C)=O)n1 [Compound 12] | –
14 | 25 | 168 | 45 | – | COc1cc(N2CCC3(CC2)CN(C)C3)c(C)cc1Nc1ncc(Br)c(Nc2ccc3nccnc3c2P(C)(C)=O)n1 [Compound 36] | –
15 | 58 | 58 | 32.2 | – | COc1cc(N2CCC(N3CCN(C)CC3)CC2)c(C)cc1Nc1ncc(Cl)c(Nc2ccc3nccnc3c2P(C)(C)=O)n1 [Example 61] | –
16 | 271 | 271 | 47.6 | – | COc1cc(N2CCC(N3CCN(C)CC3)CC2)ccc1Nc1ncc(Br)c(Nc2ccc3nccnc3c2P(C)(C)=O)n1 [Example 60] | –
